One assay deals with T1, TBK1 (Homo sapiens, UniProt Q9UHD2).
T1 sequence (Q9UHD2 1-729): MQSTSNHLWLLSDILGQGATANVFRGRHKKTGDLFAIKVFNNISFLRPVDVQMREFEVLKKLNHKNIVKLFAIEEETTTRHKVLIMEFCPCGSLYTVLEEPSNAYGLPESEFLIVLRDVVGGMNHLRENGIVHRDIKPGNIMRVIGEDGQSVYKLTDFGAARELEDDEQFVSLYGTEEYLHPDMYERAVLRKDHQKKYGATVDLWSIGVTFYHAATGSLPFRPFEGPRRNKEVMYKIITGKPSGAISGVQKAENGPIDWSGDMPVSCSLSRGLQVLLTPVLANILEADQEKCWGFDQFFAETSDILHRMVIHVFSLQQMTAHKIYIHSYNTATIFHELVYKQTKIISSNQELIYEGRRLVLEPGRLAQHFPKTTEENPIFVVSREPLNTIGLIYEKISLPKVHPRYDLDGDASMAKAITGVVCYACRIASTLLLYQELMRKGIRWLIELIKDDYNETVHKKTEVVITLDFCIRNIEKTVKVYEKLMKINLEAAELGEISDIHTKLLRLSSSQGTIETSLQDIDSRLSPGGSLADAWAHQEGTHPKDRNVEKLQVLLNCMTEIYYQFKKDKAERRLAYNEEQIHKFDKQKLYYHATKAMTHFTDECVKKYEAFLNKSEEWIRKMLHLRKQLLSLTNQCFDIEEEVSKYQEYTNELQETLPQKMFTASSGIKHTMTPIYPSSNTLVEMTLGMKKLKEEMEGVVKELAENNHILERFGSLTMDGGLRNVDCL
As to the kind of experiment: TBK Biochemical Assay. The note with it: read-out: TBK1 IC50. The method, boiled down:
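Caliper LabChip mobility-shift readout of substrate and product after 90 min of TBK1 reaction at 25° C and stop-buffer addition. Compounds tested in 1:4 serial dilution over 10 points from 30 uM final at 1% DMSO; staurosporine 10 uM final defines full inhibition.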

In a further assay the target is T2, IKKε (Homo sapiens, UniProt Q14164).
T2 sequence (Q14164 1-716): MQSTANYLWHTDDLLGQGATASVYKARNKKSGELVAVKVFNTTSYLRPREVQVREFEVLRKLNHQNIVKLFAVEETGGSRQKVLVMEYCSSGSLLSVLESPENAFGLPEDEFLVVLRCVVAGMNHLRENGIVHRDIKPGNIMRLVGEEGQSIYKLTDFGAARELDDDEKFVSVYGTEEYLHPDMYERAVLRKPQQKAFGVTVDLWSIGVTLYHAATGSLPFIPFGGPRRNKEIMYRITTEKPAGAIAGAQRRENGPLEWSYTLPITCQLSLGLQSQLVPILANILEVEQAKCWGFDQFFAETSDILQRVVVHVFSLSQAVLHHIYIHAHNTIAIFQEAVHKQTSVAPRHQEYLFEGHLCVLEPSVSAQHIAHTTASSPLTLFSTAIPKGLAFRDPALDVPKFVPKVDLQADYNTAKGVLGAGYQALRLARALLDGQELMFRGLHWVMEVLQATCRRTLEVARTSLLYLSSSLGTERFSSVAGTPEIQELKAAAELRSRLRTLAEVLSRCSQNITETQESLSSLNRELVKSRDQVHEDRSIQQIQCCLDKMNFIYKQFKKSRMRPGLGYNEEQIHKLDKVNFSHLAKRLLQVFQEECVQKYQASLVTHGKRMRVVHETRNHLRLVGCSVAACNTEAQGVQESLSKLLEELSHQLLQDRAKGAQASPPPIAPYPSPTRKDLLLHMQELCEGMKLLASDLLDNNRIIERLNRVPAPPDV
The assay is described as follows: IKKe Biochemical Assay. The note with it: read-out: IKKε IC50. In a few lines:
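Activity was measured as mobility-shift separation of phosphorylated from unphosphorylated substrate on a LabChip EZ Reader. Compound was titrated from 30 uM final in 10 points, 1:4 steps, with 1% DMSO, and enzyme plus substrate reacted 90 min at 25° C before stop buffer. Control wells held 10 uM staurosporine.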

Assay [1] has as its system phosphorylation of the IRF-3 protein in MDA-MB-468 cells. The assay is described as follows: pIRF3 immunocytochemistry cell based assay. The note with it: Homo sapiens. The method, boiled down: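 After 2 h stimulation with Poly(I:C) (10 ug/ml), following 1 h compound pre-treatment (10-point, 3-fold dilution, top 10 uM), MDA-MB-468 cells were fixed and stained with anti-pIRF3 antibody. pIRF3 fluorescence was normalized to PI staining or cell count on an Acumen cytometer. IC50 curves were derived from this.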

Where [2] appears, read: MDA-MB-468 cells, Poly(I:C) stimulation, read-out: pIRF3 IC50.

For 16 molecules, IC50 results are on record in US10428080B2, “TBK/IKK inhibitor compounds and uses thereof” (Merck Patent GmbH, priority 2015, dated 2019).

The structures appear in SMILES notation. Structures can show the parent of a compound that is named as a salt. Where two headings read alike, the source gives them in different places.

Turning to `COc1cc(C(=O)NC2(CN(C)C)CCC2)ccc1-c1cc2nccc(-c3ccc(OC4CCOCC4)c(C#N)c3)c2o1` [Compound 368, 4-[7-[3-cyano-4-(oxan-4-yloxy)phenyl]furo[3,2-b]pyridin-2-yl]-N-[1-[(dimethylamino)methyl]cyclobutyl]-3-methoxybenzamide], the 50% inhibitory concentration (IC50) on TBK1 is less than 100 nM; at IKKε it was less than 100 nM; in assay [1] (setting [2]) it was 100 to 1000 nM.
On to `CCC(CO)(CO)NC(=O)c1ccc(-c2cc3nccc(-c4ccc(OC5CCOCC5)c(C#N)c4)c3o2)c(OC)c1` [Compound 479, N-(1,1-Bis-hydroxymethyl-propyl)-4-{7-[3-cyano-4-(tetrahydro-pyran-4-yloxy)-phenyl]-furo[3,2-b]pyridin-2-yl}-3-methoxy-benzamide], for which the figures for the IC50 (on TBK1; at IKKε; in assay [1] (setting [2])) were less than 100 nM, less than 100 nM and 100 to 1000 nM, respectively.
As for `COc1cc(C(=O)N2CC(CO)C2)ccc1-c1cc2nccc(-c3ccc(OC4CCOCC4)c(C#N)c3)c2o1` [Compound 38, 5-{2-[4-(3-Hydroxymethyl-azetidine-1-carbonyl)-2-methoxy-phenyl]-furo[3,2-b]pyridin-7-yl}-2-(tetrahydro-pyran-4-yloxy)-benzonitrile], the results for the IC50 (on TBK1; at IKKε; in assay [1] (setting [2])) were less than 100 nM, less than 100 nM and 100 to 1000 nM, respectively.
For `COc1cc(C(=O)N(C)CCO)ncc1-c1cc2nccc(-c3ccc(OC4CCOCC4)c(C#N)n3)c2o1` [Compound 376, 5-[7-[6-cyano-5-(oxan-4-yloxy)pyridin-2-yl]furo[3,2-b]pyridin-2-yl]-N-(2-hydroxyethyl)-4-methoxy-N-methylpyridine-2-carboxamide], the IC50 (on TBK1; at IKKε; in assay [1] (setting [2])) was less than 100 nM in each case.
In the case of `COc1cc(C(=O)NCC(O)CO)ccc1-c1cc2nccc(-c3ccc(NC4CCOCC4)c(C#N)c3)c2o1` (stereo not drawn) [Compound 111, 4-{7-[3-Cyano-4-(tetrahydro-pyran-4-ylamino)-phenyl]-furo[3,2-b]pyridin-2-yl}-N-(2,3-dihydroxy-propyl)-3-methoxy-benzamide], the IC50 at TBK1 is less than 100 nM; at IKKε it was less than 100 nM; in assay [1] (setting [2]), 100 to 1000 nM.
As to `COc1cc(C(=O)NCCC2CCNCC2)ccc1-c1cc2nccc(-c3ccc(OC4CCOCC4)c(C#N)c3)c2o1` [Compound 118, 4-{7-[3-Cyano-4-(tetrahydro-pyran-4-yloxy)-phenyl]-furo[3,2-b]pyridin-2-yl}-3-methoxy-N-(2-piperidin-4-yl-ethyl)-benzamide hydrochloride], the figures for the IC50 (at TBK1; at IKKε; in assay [1] (setting [2])) were less than 100 nM, less than 100 nM and 100 to 1000 nM, respectively.
With `COc1cc(C(=O)N[C@@]23C[C@@H]2CN(C(C)C)C3)ccc1-c1cc2nccc(-c3ccc(OC4CCOCC4)c(C#N)c3)c2o1` [Compound 372, 4-[7-[3-cyano-4-(oxan-4-yloxy)phenyl]furo[3,2-b]pyridin-2-yl]-3-methoxy-N-[(1S,5R)-3-(propan-2-yl)-3-azabicyclo[3.1.0]hexan-1-yl]benzamide], the IC50 on TBK1 is less than 100 nM; at IKKε, less than 100 nM; in assay [1] (MDA-MB-468, read-out: pIRF3 IC50), 100 to 1000 nM.
Take `CN(C)C(=O)c1ccc(-c2cc3nccc(-c4ccc(N5CC[C@H](N(C)C)C5)c(C#N)c4)c3o2)cc1` [Compound 173, 4-{7-[3-Cyano-4-((S)-3-dimethylamino-pyrrolidin-1-yl)-phenyl]-furo[3,2-b]pyridin-2-yl}-N,N-dimethyl-benzamide]: the IC50 lay in the range of 100 to 1000 nM at TBK1, 100 to 1000 nM at IKKε and 1000 to 5000 nM in assay [1] (setting [2]).
As for `COc1cc(C(=O)N(C)C)cnc1-c1cc2ncc(C)c(-c3ccc(NC4CCOCC4)c(C#N)n3)c2o1` [Compound 322, 6-(7-(6-cyano-5-(tetrahydro-2H-pyran-4-ylamino)pyridin-2-yl)-6-methylfuro[3,2-b]pyridin-2-yl)-5-methoxy-N,N-dimethylnicotinamide], the IC50 was in the range of 100 to 1000 nM on TBK1, 1000 to 5000 nM at IKKε and 1000 to 5000 nM in assay [1] (setting [2]).
Consider `COc1cc(C(=O)NC2CN3CCC2CC3)cnc1-c1cc2nccc(-c3ccc(N4CC[C@@H](F)C4)c(C#N)c3)c2o1` (stereo partly drawn) [Compound 440, N—(S)-1-Aza-bicyclo[2.20.2]oct-3-yl-6-{7-[3-cyano-4-((R)-3-fluoro-pyrrolidin-1-yl)-phenyl]-furo[3,2-b]pyridin-2-yl}-5-methoxy-nicotinamide], for which the values for the IC50 (on TBK1; at IKKε; in assay [1] (setting [2])) were less than 100 nM, less than 100 nM and 100 to 1000 nM, respectively.
Take `COc1cc(C(=O)NC(C)(C)CN(C)C)ccc1-c1cc2nccc(-c3ccc(OC4CCOCC4)c(C#N)c3)c2o1` [Compound 63, 4-{7-[3-Cyano-4-(tetrahydro-pyran-4-yloxy)-phenyl]-furo[3,2-b]pyridin-2-yl}-N-(2-dimethylamino-1,1-dimethyl-ethyl)-3-methoxy-benzamide]: the IC50 (on TBK1; at IKKε; in assay [1] (setting [2])) was less than 100 nM in each case.
On to `N#Cc1cc(-c2ccnc3cc(-c4ccc(C(=O)N[C@H]5CNCC[C@@H]5F)cc4)oc23)ccc1OC1CCOCC1` [Compound 135, 4-{7-[3-Cyano-4-(tetrahydro-pyran-4-yloxy)-phenyl]-furo[3,2-b]pyridin-2-yl}-N-((3S,4S)-4-fluoro-piperidin-3-yl)-benzamide], for which the IC50 at TBK1 was less than 100 nM; on IKKε it was less than 100 nM; in assay [1] (setting [2]), 100 to 1000 nM.
In the case of `COc1cc(C(=O)NC2(C)CCN(C)CC2)ccc1-c1cc2nccc(-c3ccc(OC4CCOCC4)c(C#N)c3)c2o1` [Compound 370, 4-[7-[3-cyano-4-(oxan-4-yloxy)phenyl]furo[3,2-b]pyridin-2-yl]-N-(1,4-dimethylpiperidin-4-yl)-3-methoxybenzamide hydrochloride], the half-maximal inhibitory concentration (IC50) on TBK1 is less than 100 nM; on IKKε it was less than 100 nM; in assay [1] (setting [2]), 100 to 1000 nM.
In the case of `COc1cc(C(=O)N2CC(F)(F)C2)ccc1-c1cc2nccc(-c3ccc(OC4CCOCC4)c(C#N)c3)c2o1` [Compound 77, 5-{2-[4-(3,3-Difluoro-azetidine-1-carbonyl)-2-methoxy-phenyl]-furo[3,2-b]pyridin-7-yl}-2-(tetrahydro-pyran-4-yloxy)-benzonitrile], the IC50 is less than 100 nM on TBK1, less than 100 nM on IKKε and 100 to 1000 nM in assay [1] (setting [2]).
For `COc1cc(C(N)=O)ccc1-c1cc2nccc(-c3ccc(OC4CCOCC4)c(C#N)c3)c2o1` [Compound 40, 4-{7-[3-Cyano-4-(tetrahydro-pyran-4-yloxy)-phenyl]-furo[3,2-b]pyridin-2-yl}-3-methoxy-benzamide], the figures for the IC50 (at TBK1; at IKKε; in assay [1] (setting [2])) were less than 100 nM, less than 100 nM and 100 to 1000 nM, respectively.
`CN(C)C(=O)c1cc(F)c(-c2cc3nccc(-c4ccc(NC5CCOCC5)c(C#N)c4)c3o2)c(F)c1` [Compound 295, 4-(7-[3-cyano-4-[(oxan-4-yl)amino]phenyl]furo[3,2-b]pyridin-2-yl)-3,5-difluoro-N,N-dimethylbenzamide hydrochloride]: the results for the IC50 (on TBK1; on IKKε; in assay [1] (setting [2])) were 100 to 1000 nM, less than 100 nM and 1000 to 5000 nM, respectively.

By IC50 is commonly meant the concentration at which inhibition is half-maximal.
